Source: patent publication US11834401B2, “Treating and preventing diseases by modulating cell mechanics” (THE JOHNS HOPKINS UNIVERSITY, priority 2013, dated 2023)

Key:
myosin II [1] = assay: Myosin II cortical localization by SIM, TIRF and confocal imaging; format: cell-based, Dictyostelium discoideum; details: myoII null cells
Method: (§1) Micropipette aspiration was used for cortical tension and creep response measurements. Confocal imaging was performed on a Zeiss 510 Meta with a 63× (numerical aperture [NA] 1.4) objective (Carl Zeiss, Jena, Germany). Epifluorescence and TIRF imaging was performed in a 22° C. temperature controlled room with an Olympus IX81 microscope using a 40× (NA 1.3) or 60× (NA 1.49) objective and a 1.4× optovar (Olympus, Center Valley, Pa.), as previously described. Image analysis was performed with ImageJ (rsb.info.nih.gov/ij).
(§2) Imaging conditions during primary screen are described above. All other image analysis was performed as previously described (Kee Y S, et al., 2012). Cells were transferred from Petri dishes (with 0.1% DMSO incubation in growth media of 4 hrs) to imaging chambers and allowed to adhere for 20 min in growth media with 0.1% DMSO. After the cells adhered, the growth media was replaced with 2-(N-morpholino)ethanesulfonic acid (MES) starvation buffer (50 mM MES, pH 6.8, 2 mM MgCl2, 0.2 mM CaCl2) with 0.1% DMS. Confocal imaging was performed on aZeiss 510 Meta with a 63× (numerical aperture [NA] 1.4) objective (Carl Zeiss, Jena, Germany). Epifluorescence and TIR imaging was performed in a 22° C. temperature controlled room with an Olympus IX81 microscope using a 40× (NA 1.3) or 60× (NA […]) objective and a 1.4× optovar (Olympus, Center Valley, Pa.), as previously described. Image analysis was performed with ImageJ (rsb.info.nih.gov/ij). Many data sets were independently analyzed by multiple investigators.

myosin II [2] = molecular target: T1, myosin II (Dictyostelium discoideum, UniProt P08799, T1823D/T1833D/T2029D); assay: as above; format: cell-based; details: myoII null cells, 500 nM, 10 minutes post-treatment
T1 construct: expressed in transfected cells; host or cells: Dictyostelium discoideum myoII null cells rescued with GFP-myosin II
Method: as §1, §2

myosin II [3] = molecular target: T2, myosin II (Dictyostelium discoideum, UniProt P08799, T1823A/T1833A/T2029A); assay: as above; format: cell-based; details: myoII null cells, 500 nM, 10 minutes post-treatment
T2 construct: expressed in transfected cells; host or cells: Dictyostelium discoideum myoII null cells rescued with GFP-myosin II
Method: as §1, §2

myosin II [4] = molecular target: T3, myosin II (Dictyostelium discoideum, UniProt P08799, S456L); assay: as above; format: cell-based; details: myoII null cells, time course beyond one hour
T3 construct: expressed in transfected cells; host or cells: Dictyostelium discoideum myoII null cells rescued with GFP-myosin II
Method: as §1, §2

Panc10.05 cells = assay: Micropipette aspiration effective cortical tension (Teff), knockdown lines; format: cell-based, human
Method: The instrumental and experimental setups have been described previously. MPA assays and RT-DC measurements were all carried out in growth media for cortical tension measurements or Leibovitz L-15 media (Gibco) when fluorescence was quantified.
Pressure was applied to the cell cortex with a micropipette (6- to 8-μm radius; Rp) to the equilibrium pressure (ΔP), where the length of the cell inside the pipette (Lp) was equal to Rp. The effective cortical tension (Teff) was calculated by applying the Young-Laplace equation: ΔP=2Teff (1/Rp−1/Rc), where Rc is the radius of the cell and ΔP is the equilibrium pressure when Lp=Rp. Images were collected with an Olympus IX81 microscope equipped with MetaMorph software and analyzed using ImageJ (rsb.info.nih.gov/ij).

ASPC-1 cells [5] = assay: Micropipette aspiration creep test; format: cell-based, human; details: 500 nM, 1 hr, 0.25 nN/μm^2
Method: (§3) The instrumental and experimental setups have been previously described (Effler J C, et al., 2006; Kee Y-S, et al., 2013). Micropipette aspiration assays were all carried out in growth media with 0.1% DMSO. For cortical tension measurements of Dictyostelium cells, pressure was applied to the cell cortex with a micropipette (2-3 m radius, Rp) to the equilibrium pressure (ΔP) where the length of the cell inside the pipette (Lp) was equal to Rp. The effective cortical tension (Teff) was calculated by applying the Young-Laplace equation: ΔP=2Teff(1/Rp-1/Rc), where Rc is the radius of the cell and ΔP is the equilibrium pressure when Lp=Rp (Derganc J, et al., 2000; Octtaviani E, et al., 2006). For creep tests on mammalian strains, a constant aspiration stress was applied over 60 s. The micropipette radius was 3.5-4.5 m. For quantification, the Lp/Rp ratio values was measured every two seconds and plotted as a function of time. A10.7 and HEK293 cells could only be aspirated at a low pressure range (0.15 nN/μm^2), while HPDE, ASPC-1, and HL-60 cells could be aspirated at higher pressure ranges (0.25 nN/μm^2) because they were stiffer.

HEK293 cells = assay: Micropipette aspiration creep test; format: cell-based, human; details: 500 nM, 1 hr, 0.15 nN/μm^2
Method: as §3

NMIIA, NMIIC, ACTN4 = assay: Western analysis of mechanobiome protein expression; format: cell-based, human; details: Panc10.05 cells, overnight treatment
AsPC-1 cells [6] = assay: Hemi-splenectomy PDAC liver metastasis model; format: in vivo, athymic NCr-nu/nu mice; details: 5 mg/ml, 200 μl IP every other day
Method: Therefore, the inventors tested 4-HAP in a mouse model for PDAC metastasis. Hemi-splenectomies with 4-HAP pre-treated metastatic AsPC-1 cells were performed on nude mice which were subsequently divided into three groups: control, PBS (200 μl PBS IP injections, every other day), and 4-HAP (5 mg/ml, 200 μl IP injections, every other day). Mice were harvested at 5-weeks post-surgery, when the first mouse expired. Metastasis to the liver was observed and quantified by an in-house Matlab script that determined surface area tumor coverage.
Hemi-splenectomies were performed on athymic NCr-nu/nu mice (Charles River Laboratories) with low passage AsPC-1 cells as previously described. In short, laparotomies were performed on anesthetized mice in which the upper pole of a divided spleen was reinserted into the peritoneum while 1×10^7 AsPC-1 cells prepared in phosphate buffered saline were injected into the lower splenic pole, chased by an equal volume of phosphate buffered saline. The pancreas and splenic vessels were ligated and the peritoneum was closed.
AsPC-1 cells were pretreated with 50 μM 4-HAP or PBS 24 hr prior to injection during hemisplenectomies. […]
Quantifications of mouse livers were performed using a custom-designed Matlab script. […] The percent coverage of tumor was calculated.

T2 sequence (P08799 whole entry T1823A/T1833A/T2029A): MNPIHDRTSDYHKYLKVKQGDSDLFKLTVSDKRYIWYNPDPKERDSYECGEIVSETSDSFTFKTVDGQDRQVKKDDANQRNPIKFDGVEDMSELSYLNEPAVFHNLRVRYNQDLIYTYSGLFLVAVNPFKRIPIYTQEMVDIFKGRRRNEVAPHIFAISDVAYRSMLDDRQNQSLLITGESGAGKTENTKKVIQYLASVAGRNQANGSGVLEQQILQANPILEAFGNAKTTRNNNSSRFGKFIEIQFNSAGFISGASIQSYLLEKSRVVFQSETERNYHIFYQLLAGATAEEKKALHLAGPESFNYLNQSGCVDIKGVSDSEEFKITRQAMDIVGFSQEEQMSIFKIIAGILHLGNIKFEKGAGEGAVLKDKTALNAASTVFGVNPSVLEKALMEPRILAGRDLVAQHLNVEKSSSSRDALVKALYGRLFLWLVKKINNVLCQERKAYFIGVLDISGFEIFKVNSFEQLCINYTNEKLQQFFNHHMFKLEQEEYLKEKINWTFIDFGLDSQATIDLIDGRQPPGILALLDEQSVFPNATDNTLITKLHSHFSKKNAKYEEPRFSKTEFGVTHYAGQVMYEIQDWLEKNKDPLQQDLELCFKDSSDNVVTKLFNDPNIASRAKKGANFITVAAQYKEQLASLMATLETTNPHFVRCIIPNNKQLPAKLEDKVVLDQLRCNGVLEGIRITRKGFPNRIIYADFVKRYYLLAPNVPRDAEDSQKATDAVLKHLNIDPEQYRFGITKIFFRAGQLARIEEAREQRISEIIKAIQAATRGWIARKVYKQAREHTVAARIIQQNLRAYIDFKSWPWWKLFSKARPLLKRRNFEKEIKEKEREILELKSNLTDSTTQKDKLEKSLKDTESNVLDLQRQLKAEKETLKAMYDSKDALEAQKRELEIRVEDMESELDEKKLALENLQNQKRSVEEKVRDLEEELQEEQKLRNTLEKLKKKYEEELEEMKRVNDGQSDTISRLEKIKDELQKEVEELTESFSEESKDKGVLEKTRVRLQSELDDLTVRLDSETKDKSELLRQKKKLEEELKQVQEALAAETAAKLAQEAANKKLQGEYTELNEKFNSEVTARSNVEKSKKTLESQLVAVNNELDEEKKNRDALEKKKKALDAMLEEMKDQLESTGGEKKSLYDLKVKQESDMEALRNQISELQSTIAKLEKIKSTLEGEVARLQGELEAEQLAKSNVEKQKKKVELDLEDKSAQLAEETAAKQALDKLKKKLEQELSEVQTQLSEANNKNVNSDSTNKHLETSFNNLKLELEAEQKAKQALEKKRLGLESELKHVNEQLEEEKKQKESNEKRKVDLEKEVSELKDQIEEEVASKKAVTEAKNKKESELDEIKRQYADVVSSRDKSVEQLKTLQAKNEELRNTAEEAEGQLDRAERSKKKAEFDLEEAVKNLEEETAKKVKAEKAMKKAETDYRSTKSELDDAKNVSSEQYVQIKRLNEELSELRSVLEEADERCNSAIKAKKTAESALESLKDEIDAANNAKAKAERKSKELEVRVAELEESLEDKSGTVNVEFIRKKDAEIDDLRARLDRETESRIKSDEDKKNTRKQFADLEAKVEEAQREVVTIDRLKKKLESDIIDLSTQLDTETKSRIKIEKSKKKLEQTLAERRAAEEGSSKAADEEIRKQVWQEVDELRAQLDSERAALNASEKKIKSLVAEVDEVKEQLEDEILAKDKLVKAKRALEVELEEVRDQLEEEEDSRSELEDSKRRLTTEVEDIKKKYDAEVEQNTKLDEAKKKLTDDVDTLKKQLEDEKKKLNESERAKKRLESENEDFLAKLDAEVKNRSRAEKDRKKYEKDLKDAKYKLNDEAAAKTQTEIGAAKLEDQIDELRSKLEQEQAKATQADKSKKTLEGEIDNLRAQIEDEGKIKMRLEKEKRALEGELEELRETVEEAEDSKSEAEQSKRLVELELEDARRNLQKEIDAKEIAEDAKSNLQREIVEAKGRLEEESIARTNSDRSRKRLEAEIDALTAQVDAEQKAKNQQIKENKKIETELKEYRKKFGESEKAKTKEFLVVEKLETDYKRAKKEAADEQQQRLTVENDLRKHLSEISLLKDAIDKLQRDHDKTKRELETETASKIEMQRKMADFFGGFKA
T1 sequence (P08799 whole entry T1823D/T1833D/T2029D): as the sequence (P08799 whole entry T1823A/T1833A/T2029A) above, with A1823D, A1833D, A2029D counted along it
T3 sequence (P08799 whole entry S456L): as the sequence (P08799 whole entry T1823A/T1833A/T2029A) above, with S456L, A1823T, A1833T, A2029T counted along it

SMILES: CC(=O)c1ccc(O)cc1 [4-HAP, 4-hydroxyacetophenone]
- myosin accumulation, GFP-S1 motor domain (myosin II [1]): did not show an accumulation response
- filament formation, GFP-3XAsp myosin (myosin II [2]): generating more short filaments
- filament formation, GFP-3XAla myosin (myosin II [3]): increasing in filament length and intensity
- myosin accumulation, GFP-S456L myosin (myosin II [4]): did not show a response to 4-HAP
- effective cortical tension (Panc10.05 cells; myosin IIA knockdown cells): increases the cortical tension in myosin IIA knockdown cells
- effective cortical tension (Panc10.05 cells; myosin IIC knockdown cells): unchanged by 4-HAP challenge
- effective cortical tension (Panc10.05 cells; sh-control cells, 500-nM): increases the cortical tension of sh-control cells
- deformability in creep test (ASPC-1 cells [5]): stiffens ASPC-1 cells, shifting them towards HPDE-like mechanics
- deformability in creep test (HEK293 cells): stiffens the soft HEK293 cells
- expression of NMIIA, NMIIC, or ACTN4 (NMIIA, NMIIC, ACTN4): does not affect the expression
- tumor formation (liver weights and tumor coverage) (AsPC-1 cells [6]): reduction in tumor formation
- reduction in surface tumor load (liver tumor coverage) (AsPC-1 cells [6]; 5-weeks post-surgery): 50%
